In brackets after ≈: the same amount, converted by molar mass. Some results are limits rather than exact numbers.

What all share (format): cell-based
In test [1] the test system is Magnaporthe oryzae. The experiment in a line: microbe, parasite or virus in culture. As to conditions: PDA; for IC50: % of composition stock solution / IC50: concentration of copper or zinc in the composition, or phosphorous acid: 4 days; for IC50: concentration of copper or zinc in the composition, or phosphorous acid: Cu—Zn#12: 50% each of elemental copper and zinc.

The test system of test [2] is Fusarium graminearum. The experiment in a line: microbe, parasite or virus in culture. As to conditions: for IC50: % of composition stock solution / IC50: concentration of copper or zinc in the composition, or phosphorous acid: PDA, 3 days; for IC50: concentration of copper or zinc in the composition, or phosphorous acid: Cu—Zn#12: 50% each of elemental copper and zinc; for Potassium sorbate synergy with composition/compound: potassium sorbate and composition/compound both at their IC50 concentrations.

Test [3] deals with Botrytis cinerea. Description: Fungal growth inhibition assay (hyphal growth diameter on PDA). The note with it: for IC50: % of composition stock solution / IC50: concentration of copper or zinc in the composition, or phosphorous acid: PDA, 2 days; for IC50: concentration of copper or zinc in the composition, or phosphorous acid: Cu—Zn#12: 50% each of elemental copper and zinc; for Potassium sorbate synergy with composition/compound: potassium sorbate and composition/compound both at their IC50 concentrations.

Test [4] relates to Rhizoctonia solani. The description is as above. As to conditions: for IC50: % of composition stock solution / IC50: concentration of copper or zinc in the composition, or phosphorous acid: PDA, 1 day; for IC50: concentration of copper or zinc in the composition, or phosphorous acid: Cu—Zn# compositions: copper plus zinc; for Potassium sorbate synergy with composition/compound: potassium sorbate and composition/compound both at their IC50 concentrations.

The test system of test [5] is Alternaria alternata. Described as above. As to conditions: PDA, 2 days; for IC50: concentration of copper or zinc in the composition, or phosphorous acid: Cu—Zn#12: 50% each of elemental copper and zinc.
In test [6] the test system is Ustilago maydis. Described as above. Further details: Potassium sorbate synergy with composition/compound: key to the marks not given beside the values. As to conditions: for IC50: % of composition stock solution / IC50: concentration of copper or zinc in the composition, or phosphorous acid: PDA, 5 days; for IC50: concentration of copper or zinc in the composition, or phosphorous acid: Cu—Zn#12: 50% each of elemental copper and zinc; for Potassium sorbate synergy with composition/compound: potassium sorbate and composition/compound both at their IC50 concentrations.

Test [7] has as its system Aspergillus niger. The test is described as above. The note with it: for IC50: % of composition stock solution / IC50: concentration of copper or zinc in the composition, or phosphorous acid: PDA, 6 days; for IC50: concentration of copper or zinc in the composition, or phosphorous acid: Cu—Zn#12: 50% each of elemental copper and zinc; for Potassium sorbate synergy with composition/compound: potassium sorbate and composition/compound both at their IC50 concentrations.

In test [8] the test system is plant pathogenic fungi. Description: organism not typed. As to conditions: summary of TABLE 8.
Test [9] relates to Trichophyton rubrum. Description: Fungal growth inhibition assay with Trichophyton rubrum. As to conditions: PDA, 33° C., 7 days; for T. rubrum IC50 values: Concentration: Cu—Zn#12: 50% each of elemental copper and zinc. The protocol: To assess the effects of compositions on fungal growth, 10 microliters of the test compositions diluted in sterile distilled water were placed in the wells of a 12-well tissue culture plate and 1 milliliter of liquid PDA was added by pipette to each well. Where multiple samples were added to each well, the 10 microliter drops were kept separate until they were mixed by the addition of hot liquid PDA and the plate was then agitated to evenly distribute the test composition(s) evenly through the agar (distilled water was used as vehicle control) and then the agar was allowed to set. For most strains (see TABLE 2), plugs of agar containing fungal hyphae (2 to 3 millimeters in diameter) from the edge of an established fungal culture were carefully cut out using a scalpel and inserted into holes cut in the centre of the agar in each well of the 12-well plate. With B. cinerea and U. maydis, mature cultures were washed with 3 ml of sterile distilled water and the spore suspensions obtained were adjusted to O.D. (at 600 nanometers) of 1.0 and 1.5, respectively. A small hole (˜1 millimeter) was made in the center of the PDA in each well with a yellow pipette tip and 1.5 microliters of spore suspension was carefully pipetted into the hole. […] To assess the effects of compositions on fungal growth in all experiments, the diameter of the hyphal growth was measured twice at a 90° angle using a ruler and the average diameter in millimeters was calculated. If no fungal growth could be detected by eye, the cultures were observed by phase microscopy (40×) to confirm that there was no growth (NG).
A clinical isolate of T. rubrum (strain 7107996; Phylum: Acomycota) was kindly provided by Dr. Richard Barton, Leeds University, UK. The growth assays with T. rubrum were as described in EXAMPLE 1, except this strain was cultured at 33° C. on PDA for 6 or 7 days when growth was assessed. T. rubrum cultures were maintained on Sabouraud dextrose agar at 33° C.
FIG. 8 is a graph depicting the effects of selected compositions and compounds on the growth of Trichophyton rubrum. The culture period was 7 days. Growth in the control cultures was 20±0 millimeters (mean±SD for 2 experiments).

Test [10] has as its system Pseudomonas syringae (pv. tomato DC3000). Description: Bacterial microplate culture (resazurin MIC). As to conditions: 24 hours at 28° C.; highest concentration 400 mg/L (1% of stock solutions). (The colour change of resazurin is a common sign of viable cells or microbes.)
Test [11] concerns Ralstonia solanacearum (strain PSS4 from tomato). Description: microbe, parasite or virus in culture. As to conditions: 24 hours at 28° C.; highest concentration 400 mg/L (1% of stock solutions).
The test system of test [12] is Xanthomonas oryzae (strain Gx0372). Description: microbe, parasite or virus in culture. As to conditions: 24 hours at 28° C.; highest concentration 400 mg/L (1% of stock solutions).
Test [13] has as its system Xanthomonas campestris (strain Race 5 from brassica). The experiment in a line: Bacterial microplate culture (resazurin MIC). As to conditions: 24 hours at 28° C.; highest concentration 400 mg/L (1% of stock solutions).

Take `O=S(=O)([O-])[O-].[Cu+2]` [Copper sulfate, copper sulfate]: the “IC50: % of composition stock solution” value in [1] was 0.51 % of composition stock solution; in test [1] (listed as copper sulfate), 0.51 % of composition stock solutio; in [2] it was 0.22 % of composition stock solution; in test [2] (listed as copper sulfate), 0.22 % of composition stock solutio; in [3] it was 0.46 % of composition stock solution; in test [4], 0.39 % of composition stock solution. For the same compound, the results for the “IC50: % of composition stock solution” value in [5], in test [6] and in [7] were 0.44 % of composition stock solution, 0.43 % of composition stock solution and 0.19 % of composition stock solution, respectively. Further, the “IC50: concentration of copper or zinc in the composition, or phosphorous acid” value (“IC50: concentration of copper or zinc” below) in [1] amounted to 204 µg/mL; in test [2], 88 µg/mL; in test [3], 184 µg/mL; in test [4], 156 µg/mL; in test [5], 176 µg/mL; in test [6] it was 172 µg/mL. Also, the “IC50: concentration of copper or zinc” value in test [7] turned out to be 76 µg/mL. Besides, in [3], the “Potassium sorbate synergy with composition/compound” value is reported as “++”. Also, the “fungal strains (of those tested) showing strong synergy with KS” value (from here on “fungal strains”) in test [8] is 6/7. In addition, the “T. rubrum IC50 values: % of stock solution” value (shortened to “T. rubrum IC50 values: %”) in [9] is 0.20 % of stock solution. In test [9], the “T. rubrum IC50 values: Concentration” value was 80 µg/mL. The MIC turned out to be 100 µg/mL in test [10], 50 µg/mL in test [11], 50 µg/mL in test [12] and 50 µg/mL in test [13].

As to `OP(O)O` [Phosphorous acid, phosphorous acid], the “IC50: % of composition stock solution” value was 0.57 % of composition stock solution in test [1]; 0.57 % of composition stock solutio in test [1] (listed as phosphorous acid); 0.39 % of composition stock solution in test [2]; 0.78 % of composition stock solutio in test [2] (listed as phosphorous acid); 0.63 % of composition stock solution in test [3]; 0.64 % of composition stock solution in [4]. Also, the “IC50: % of composition stock solution” value in test [5] is recorded as 0.51 % of composition stock solution; in [6] it was 0.75 % of composition stock solution; in test [7] it was 0.19 % of composition stock solution. The “IC50: concentration of copper or zinc” value was 228 µg/mL in test [1]; 156 µg/mL in test [2]; 252 µg/mL in test [3]; 256 µg/mL in test [4]; 204 µg/mL in test [5]; 300 µg/mL in test [6]. Besides, the “IC50: concentration of copper or zinc” value in test [7] stood at 76 µg/mL. Besides, the “Potassium sorbate synergy with composition/compound” value in test [3] is given as “+”; in test [6], “++”; in test [7], “+”. In addition, the “fungal strains” value in test [8] is recorded as 4/7. Besides, in test [9], the “T. rubrum IC50 values: %” value was 0.05 % of stock solution. For the same compound, the “T. rubrum IC50 values: Concentration” value in test [9] turned out to be 20 µg/mL. The MIC was 200 µg/mL (≈ 2.44 mM) in [10], 100 µg/mL (≈ 1.22 mM) in test [11], 400 µg/mL (≈ 4.88 mM) in [12] and >400 µg/mL in [13].

`O=S(=O)([O-])[O-].[Zn+2]` [Zinc sulfate, zinc sulfate]: the “IC50: % of composition stock solution” value is on record as 0.48 % of composition stock solution in [1]; 0.48 % of composition stock solutio in test [1] (listed as zinc sulfate); 0.66 % of composition stock solution in [2]; 0.66 % of composition stock solutio in test [2] (listed as zinc sulfate); 0.52 % of composition stock solution in test [3]; 0.33 % of composition stock solution in test [4]. The “IC50: % of composition stock solution” value is on record as 0.62 % of composition stock solution in test [5], 0.56 % of composition stock solution in test [6] and 0.25 % of composition stock solution in [7]. Besides, the “IC50: concentration of copper or zinc” value was determined as 192 µg/mL in test [1]; 264 µg/mL in test [2]; 208 µg/mL in test [3]; 132 µg/mL in test [4]; 248 µg/mL in test [5]; 224 µg/mL in [6]. Also, the “IC50: concentration of copper or zinc” value in test [7] came out at 100 µg/mL. The “Potassium sorbate synergy with composition/compound” value in test [2] is recorded as “+”; in test [3] it was “+”; in [4] it was “+”; in test [6], “++”; in test [7], “+”. Further, the “fungal strains” value in test [8] is 2 strains. In test [9], the “T. rubrum IC50 values: %” value is 0.25 % of stock solution. Also, the “T. rubrum IC50 values: Concentration” value in [9] was 100 µg/mL. In addition, the MIC in [10] is 400 µg/mL; in test [11], >400 µg/mL; in test [12], 400 µg/mL; in [13], >400 µg/mL.

For the compound Potassium phosphite, the “IC50 fold higher than the Cu#, Cu—Zn# or Zn# compositions” value in test [1] turned out to be 13.7 fold. Further, the “IC50: % of composition stock solution” value in [1] was 3.7 % of composition stock solution; in [2], 0.78 % of composition stock solution; in test [3], 0.67 % of composition stock solution; in test [4] it was 0.93 % of composition stock solution; in [5], 1.1 % of composition stock solution; in [6], 1.3 % of composition stock solution. The “IC50: % of composition stock solution” value in test [7] was 0.19 % of composition stock solution. Moreover, the “Potassium sorbate synergy with composition/compound” value is “++” in test [2]; “+” in test [3]; “++” in test [4]; “++” in [6]; “+” in [7]. Besides, the “fungal strains” value in test [8] was 2 strains.

For the origin of these results see patent US20150342195A1, “ANTI-MICROBIAL COMPOSITIONS, PREPARATIONS, METHODS, AND USES” (MYCO SCIENCES LIMITED, priority 2014, published 2015).
